Data as given in patent US10112899B2 (ViiV HEALTHCARE UK LIMITED, priority 2014, dated 2018).

System: HIV in the HTLV-1 transformed cell line MT-4
Assay: organism not typed
Format: cell-based
Settings: MT4, 96 h, MT-4 cells; luciferase/cell titer glo readout after 96 hours; 10 point dose response

SMILES	IC50 [nM]
Cc1ccc(-c2c(C)c3c(c(C)c2[C@H](OC(C)(C)C)C(=O)O)CN(C(=O)N2CC4CCC(C2)O4)C3)cc1 [Example 75, (2S)-2-(tert-butoxy)-2-[4,7-dimethyl-6-(4-methylphenyl)-2-{8-oxa-3-azabicyclo[3.2.1]octane-3-carbonyl}-2,3-dihydro-1H-isoindol-5-yl]acetic acid]	34
Cc1ccc(-c2c(C)c3c(c(C)c2[C@H](OC(C)(C)C)C(=O)O)CN(C(=O)N2CCCOCC2)C3)cc1 [Example 76, (2S)-2-(tert-butoxy)-2-[4,7-dimethyl-6-(4-methylphenyl)-2-(1,4-oxazepane-4-carbonyl)-2,3-dihydro-1H-isoindol-5-yl]acetic acid]	12
Cc1ccc(-c2c(C)c3c(c(C)c2[C@H](OC(C)(C)C)C(=O)O)CN(C(=O)N2CC[C@H](O)C2)C3)cc1 [Example 77, (2S)-2-(tert-butoxy)-2-{2-[(3S)-3-hydroxypyrrolidine-1-carbonyl]-4,7-dimethyl-6-(4-methylphenyl)-2,3-dihydro-1H-isoindol-5-yl}acetic acid]	160
Cc1ccc(-c2c(C)c3c(c(C)c2[C@H](OC(C)(C)C)C(=O)O)CN(C(=O)N(C)CC2CCCCC2)C3)cc1 [Example 78, (2S)-2-(tert-butoxy)-2-{2-[(cyclohexylmethyl)(methyl)carbamoyl]-4,7-dimethyl-6-(4-methylphenyl)-2,3-dihydro-1H-isoindol-5-yl}acetic acid]	126
Cc1ccc(-c2c(C)c3c(c(C)c2[C@H](OC(C)(C)C)C(=O)O)CN(C(=O)NCCOCc2ccccc2)C3)cc1 [Example 79, (2S)-2-(2-{[2-(benzyloxy)ethyl]carbamoyl}-4,7-dimethyl-6-(4-methylphenyl)-2,3-dihydro-1H-isoindol-5-yl)-2-(tert-butoxy)acetic acid]	231
Cc1ccc(-c2c(C)c3c(c(C)c2[C@H](OC(C)(C)C)C(=O)O)CN(C(=O)N2CCN4CCC[C@@H]4C2)C3)cc1 [Example 80, (2S)-2-{2-[(8aR)-octahydropyrrolo[1,2-a]piperazine-2-carbonyl]-4,7-dimethyl-6-(4-methylphenyl)-2,3-dihydro-1H-isoindol-5-yl}-2-(tert-butoxy)acetic acid]	381
Cc1ccc(-c2c(C)c3c(c(C)c2[C@H](OC(C)(C)C)C(=O)O)CN(C(=O)N2CCC(C)CC2)C3)cc1 [Example 81, (S)-2-(tert-butoxy)-2-(4,7-dimethyl-2-(4-methylpiperidine-1-carbonyl)-6-(p-tolyl)isoindolin-5-yl)acetic acid]	16
Cc1ccc(-c2c(C)c3c(c(C)c2[C@H](OC(C)(C)C)C(=O)O)CN(C(=O)N2CC4CCCC4C2)C3)cc1 (stereo partly drawn) [Example 82, (2S)-2-(tert-butoxy)-2-(4,7-dimethyl-2-(octahydrocyclopenta[c]pyrrole-2-carbonyl)-6-(p-tolyl)isoindolin-5-yl)acetic acid]	14
Cc1ccc(-c2c(C)c3c(c(C)c2[C@H](OC(C)(C)C)C(=O)O)CN(C(=O)N2[C@H]4CC[C@@H]2CC4)C3)cc1 [Example 83, (S)-2-(2-((1R,4R)-7-azabicyclo[2.2.1]heptane-7-carbonyl)-4,7-dimethyl-6-(p-tolyl)isoindolin-5-yl)-2-(tert-butoxy)acetic acid]	6
Cc1ccc(-c2c(C)c3c(c(C)c2[C@H](OC(C)(C)C)C(=O)O)CN(C(=O)N2CCC(C)(C)CC2)C3)cc1 [Example 84, (S)-2-(tert-butoxy)-2-(2-(4,4-dimethylpiperidine-1-carbonyl)-4,7-dimethyl-6-(p-tolyl)isoindolin-5-yl)acetic acid]	11
CC(=O)N1CCN(C(=O)N2Cc3c(C)c(-c4ccc(C)cc4)c([C@H](OC(C)(C)C)C(=O)O)c(C)c3C2)CC1 [Example 85, (S)-2-(2-(4-acetylpiperazine-1-carbonyl)-4,7-dimethyl-6-(p-tolyl)isoindolin-5-yl)-2-(tert-butoxy)acetic acid]	120
Cc1ccc(-c2c(C)c3c(c(C)c2[C@H](OC(C)(C)C)C(=O)O)CN(C(=O)N2CCNCC2)C3)cc1 [Example 86, (S)-2-(tert-butoxy)-2-(4,7-dimethyl-2-(piperazine-1-carbonyl)-6-(p-tolyl)isoindolin-5-yl)acetic acid]	1160
Cc1ccc(-c2c(C)c3c(c(C)c2[C@H](OC(C)(C)C)C(=O)O)CN(C(=O)N2CCC[C@@H]2C)C3)cc1 [Example 87, (S)-2-(tert-butoxy)-2-(4,7-dimethyl-2-((S)-2-methylpyrrolidine-1-carbonyl)-6-(p-tolyl)isoindolin-5-yl)acetic acid]	5
Cc1ccc(-c2c(C)c3c(c(C)c2[C@H](OC(C)(C)C)C(=O)O)CN(C(=O)N2C[C@H](C)OC[C@H]2C)C3)cc1 [Example 88, (S)-2-(tert-butoxy)-2-(2-((2S,5R)-2,5-dimethylmorpholine-4-carbonyl)-4,7-dimethyl-6-(p-tolyl)isoindolin-5-yl)acetic acid]	18
Cc1ccc(-c2c(C)c3c(c(C)c2[C@H](OC(C)(C)C)C(=O)O)CN(C(=O)N2CCC(F)CC2)C3)cc1 [Example 89, (S)-2-(tert-butoxy)-2-(2-(4-fluoropiperidine-1-carbonyl)-4,7-dimethyl-6-(p-tolyl)isoindolin-5-yl)acetic acid]	11
Cc1ccc(-c2c(C)c3c(c(C)c2[C@H](OC(C)(C)C)C(=O)O)CN(C(=O)N2CCN(C)C(=O)C2)C3)cc1 [Example 90, (S)-2-(tert-butoxy)-2-(4,7-dimethyl-2-(4-methyl-3-oxopiperazine-1-carbonyl)-6-(p-tolyl)isoindolin-5-yl)acetic acid]	267
Cc1ccc(-c2c(C)c3c(c(C)c2[C@H](OC(C)(C)C)C(=O)O)CN(C(=O)N2CCOC[C@@H]2C)C3)cc1 [Example 91, (S)-2-(tert-butoxy)-2-(4,7-dimethyl-2-((S)-3-methylmorpholine-4-carbonyl)-6-(p-tolyl)isoindolin-5-yl)acetic acid]	13
Cc1ccc(-c2c(C)c3c(c(C)c2[C@H](OC(C)(C)C)C(=O)O)CN(C(=O)N2CCC(F)(F)CC2)C3)cc1 [Example 92, (S)-2-(tert-butoxy)-2-(2-(4,4-difluoropiperidine-1-carbonyl)-4,7-dimethyl-6-(p-tolyl)isoindolin-5-yl)acetic acid]	16
Cc1ccc(-c2c(C)c3c(c(C)c2[C@H](OC(C)(C)C)C(=O)O)CN(C(=O)N2CCCC(C)(C)C2)C3)cc1 [Example 93, (S)-2-(tert-butoxy)-2-(2-(3,3-dimethylpiperidine-1-carbonyl)-4,7-dimethyl-6-(p-tolyl)isoindolin-5-yl)acetic acid]	7
Cc1ccc(-c2c(C)c3c(c(C)c2[C@H](OC(C)(C)C)C(=O)O)CN(C(=O)NCC(F)(F)F)C3)cc1 [Example 94, (S)-2-(tert-butoxy)-2-(4,7-dimethyl-6-(p-tolyl)-2-((2,2,2-trifluoroethyl)carbamoyl)isoindolin-5-yl)acetic acid]	44
Cc1ccc(-c2c(C)c3c(c(C)c2[C@H](OC(C)(C)C)C(=O)O)CN(C(=O)N2CCC(Cc4ccccc4)CC2)C3)cc1 [Example 95, (S)-2-(2-(4-benzylpiperidine-1-carbonyl)-4,7-dimethyl-6-(p-tolyl)isoindolin-5-yl)-2-(tert-butoxy)acetic acid]	778
Cc1ccc(-c2c(C)c3c(c(C)c2[C@H](OC(C)(C)C)C(=O)O)CN(C(=O)N2CC[C@@H](F)C2)C3)cc1 [Example 96, (S)-2-(tert-butoxy)-2-(2-((R)-3-fluoropyrrolidine-1-carbonyl)-4,7-dimethyl-6-(p-tolyl)isoindolin-5-yl)acetic acid]	14
Cc1ccc(-c2c(C)c3c(c(C)c2[C@H](OC(C)(C)C)C(=O)O)CN(C(=O)NC(C)(C)c2ccccc2)C3)cc1 [Example 97, (S)-2-(tert-butoxy)-2-(4,7-dimethyl-2-((2-phenylpropan-2-yl)carbamoyl)-6-(p-tolyl)isoindolin-5-yl)acetic acid]	144
Cc1ccc(-c2c(C)c3c(c(C)c2[C@H](OC(C)(C)C)C(=O)O)CN(C(=O)N2CCC(N4CCOCC4)CC2)C3)cc1 [Example 98, (S)-2-(tert-butoxy)-2-(4,7-dimethyl-2-(4-morpholinopiperidine-1-carbonyl)-6-(p-tolyl)isoindolin-5-yl)acetic acid]	2300
Cc1ccc(-c2c(C)c3c(c(C)c2[C@H](OC(C)(C)C)C(=O)O)CN(C(=O)N[C@@H](C)C2CCCCC2)C3)cc1 [Example 99, (S)-2-(tert-butoxy)-2-(2-(((S)-1-cyclohexylethyl)carbamoyl)-4,7-dimethyl-6-(p-tolyl)isoindolin-5-yl)acetic acid]	45
Cc1ccc(-c2c(C)c3c(c(C)c2[C@H](OC(C)(C)C)C(=O)O)CN(C(=O)c2cccc4c2OCCO4)C3)cc1 [Example 105, (S)-2-(tert-butoxy)-2-(2-(2,3-dihydrobenzo[b][1,4]dioxine-5-carbonyl)-4,7-dimethyl-6-(p-tolyl)isoindolin-5-yl)acetic acid]	14
Cc1ccc(-c2c(C)c3c(c(C)c2[C@H](OC(C)(C)C)C(=O)O)CN(C(=O)CN2CCCCC2)C3)cc1 [Example 106, (S)-2-(tert-butoxy)-2-(4,7-dimethyl-2-(2-(piperidin-1-yl)acetyl)-6-(p-tolyl)isoindolin-5-yl)acetic acid]	143
Cc1ccc(-c2c(C)c3c(c(C)c2[C@H](OC(C)(C)C)C(=O)O)CN(C(=O)C2CCCCC2)C3)cc1 [Example 107, (S)-2-(tert-butoxy)-2-(2-(cyclohexanecarbonyl)-4,7-dimethyl-6-(p-tolyl)isoindolin-5-yl)acetic acid]	7
Cc1ccc(-c2c(C)c3c(c(C)c2[C@H](OC(C)(C)C)C(=O)O)CN(C(=O)C(C)(C)C)C3)cc1 [Example 109, (S)-2-(tert-butoxy)-2-(4,7-dimethyl-2-pivaloyl-6-(p-tolyl)isoindolin-5-yl)acetic acid]	36
Cc1ccc(-c2c(C)c3c(c(C)c2[C@H](OC(C)(C)C)C(=O)O)CN(C(=O)CC(C)(C)C)C3)cc1 [Example 110, (S)-2-(tert-butoxy)-2-(2-(3,3-dimethylbutanoyl)-4,7-dimethyl-6-(p-tolyl)isoindolin-5-yl)acetic acid]	6
